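Step 1: Grow cells in 96-well plates. Step 2: Expose to compound for 48 hours at 5 concentrations. Step 3: Interpolate endpoints linearly; if unreached, use highest concentration. Definition used: TGI = concentration required for complete inhibition of growth.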
Experiments:
Experiment in all cases: growth of human tumour cells (NCI), 48 h
ACHN renal = tested on: ACHN renal
HL-60(TB) leukemia = tested on: HL-60(TB) leukemia
HS 578T breast = tested on: HS 578T breast
K-562 leukemia = tested on: K-562 leukemia
NCI-H23 lung = tested on: NCI-H23 lung
OVCAR-4 ovarian = tested on: OVCAR-4 ovarian
PC-3 prostate = tested on: PC-3 prostate
SF-295 CNS = tested on: SF-295 CNS
SW-620 colon = tested on: SW-620 colon
UACC-257 melanoma = tested on: UACC-257 melanoma

Row | SMILES | TGI (ACHN renal) [µM] | TGI (HL-60(TB) leukemia) [µM] | TGI (HS 578T breast) [µM] | TGI (K-562 leukemia) [µM] | TGI (NCI-H23 lung) [µM] | TGI (OVCAR-4 ovarian) [µM] | TGI (PC-3 prostate) [µM] | TGI (SF-295 CNS) [µM] | TGI (SW-620 colon) [µM] | TGI (UACC-257 melanoma) [µM]
1 | O=c1[nH]c2c(C(F)(F)F)c(Cl)c(-c3ccccc3)nc2o1 | > 100 | 13.7 | > 100 | 84.3 | 52.1 | 69.5 | 76.2 | > 100 | > 100 | 59.9
2 | O=C1CC(Nc2ccccc2)c2c(Cl)sc(Cl)c21 (stereo not given) | 2.41 | 1.36 | > 100 | > 100 | 3.75 | 4.21 | 3.06 | 19.5 |  | 3.86
3 | C[C@]12CCC(=O)C=C1CC[C@@H]1[C@@H]2CC[C@]2(C)C(=O)/C(=C/c3ccc([N+](=O)[O-])cc3)C[C@@H]12 | 19.9 | > 100 | > 100 | > 100 | > 100 |  | > 100 | > 100 | > 100 | > 100
4 | O=C(CSc1nc2ccccc2c(=O)n1-c1ccccc1)N=Nc1c(O)[nH]c2ccc(Br)cc12 | > 94.5 | 12.8 | > 100 | 10.3 | 10.8 |  | 4.03 | 8.93 | > 51.2 | 52
5 | NC(=O)N/N=C(\Cc1cc(=O)oc2cc(O)ccc12)C(=O)Nc1ccccc1C(N)=O | > 100 | > 100 | > 100 |  | > 100 | > 100 | > 100 | > 100 | > 100 | > 100
6 | CN(C)N1C(=C(C#N)C#N)C(c2ccccc2)CC1C#N (stereo not given) | > 100 | > 100 | > 100 | > 100 | > 100 |  | > 100 | > 100 | > 100 | > 100
7 | CN(C)c1ccc(-c2c(C#N)c(-c3ccccc3)n(NS(=O)(=O)c3ccccc3)c(=O)c2C#N)cc1 | > 100 |  | > 100 | > 100 |  | > 100 | > 100 | > 100 | > 100 | > 100
8 | CC(C)(C)c1ccc(O)c(C(O)c2ccccn2)c1 (stereo not given) | > 100 | > 100 | > 100 | > 100 | > 100 |  | > 100 | > 100 | > 100 | 
9 | Cc1cccc(C)c1NC(=S)N/C=C(\C#N)C(N)=O | > 100 |  | > 100 | > 100 | > 100 | > 100 | > 100 | > 100 | > 100 | > 100
10 | COC(=O)[C@H](Cc1ccccc1)NC(=O)N(CCN(CCC#N)C(=O)N[C@H](C(=O)OC)C(C)C)c1ccccc1 | > 100 |  | > 100 |  | > 100 | > 100 | > 100 | > 100 | > 100 | > 100
11 | Nc1nc(N)c2cc(-c3cc4ccccc4[nH]3)ccc2n1 | 33.3 | 47.7 | > 100 |  | > 100 | 63.5 | > 100 | 90.2 | 90.3 | 35.1
12 | O=C1c2cccnc2S(=O)(=O)N1c1ccc(Br)cc1 |  | 28.1 | > 100 | > 100 | > 100 | > 100 | > 100 | > 100 | > 100 | > 100
13 | C[C@]12C(=O)OC[C@H](c3ccccc3)N1C(=O)N(Cc1ccccc1)[C@@H]2CO | > 100 | > 100 | > 100 | > 100 |  | > 100 | > 100 | > 100 | > 100 | > 100
14 | COc1nc2ncc([C@@H](OC(C)=O)[C@@H](COC(C)=O)OC(C)=O)nc2c(=O)n1C | > 100 | 87.8 | > 100 | > 100 |  | > 100 | > 100 | > 100 | > 100 | > 100
15 | O=C(CN1CCCCC1)c1ccc2[nH]c(=O)oc2c1 | > 100 | > 100 | > 100 | > 100 | > 100 |  | > 100 | > 100 | > 100 | > 100
16 | CC1=C[C@H](C[C@]2(C)c3c(c4c(C)cccc4oc3=O)O[C@@H]2C)OC1=O | > 100 | 52.5 | > 100 | > 100 | > 100 |  | > 100 | > 100 | 75 | > 100
17 | Cc1ccc(S(=O)(=O)N(CC(O)COc2ccccc2)c2c(F)c(F)c(F)c(F)c2F)cc1 (stereo not given) | 32 | 42.2 | 42.6 |  | 29.6 | 29.2 | 29.2 | 37.4 | 36.2 | 

Reference: PubChem BioAssay (NCI)
